Test results as given in patent US8192962B2, “Processes for detecting toxic substances” (Daikin Industries, Ltd., priority 2001, dated 2012).

Test system: Energy system protein genes
Assay: DNA chip mRNA expression in yeast, energy system protein genes (Table 4)
Format: cell-based, Saccharomyces cerevisiae S288C
How it was run: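 Measured as treated-to-untreated fluorescence ratio on a full-genome yeast DNA chip. Cells (S288C, YPD, 25° C.) were exposed in log phase for two hours to one chemical, dosed to curb growth without killing.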

## CCCCC[C@H](O)CC(=O)CCc1ccc(O)c(OC)c1 [(13), gingerol]
Yeast gene YIR031C, cells incubated two hours with the chemical substance
  The level of expressed mRNA in the presence of chemical substance/The level of expressed mRNA in the absence of chemical substance: 1.0
Yeast gene YJL045W, cells incubated two hours with the chemical substance
  The level of expressed mRNA in the presence of chemical substance/The level of expressed mRNA in the absence of chemical substance: 1.6
Yeast gene YJL121C, cells incubated two hours with the chemical substance
  The level of expressed mRNA in the presence of chemical substance/The level of expressed mRNA in the absence of chemical substance: 0.7
Yeast gene YJL216C, cells incubated two hours with the chemical substance
  The level of expressed mRNA in the presence of chemical substance/The level of expressed mRNA in the absence of chemical substance: 1.1
Yeast gene YJR048W
  The level of expressed mRNA in the presence of chemical substance/The level of expressed mRNA in the absence of chemical substance: 0.4
Yeast gene YJR121W, cells incubated two hours with the chemical substance
  The level of expressed mRNA in the presence of chemical substance/The level of expressed mRNA in the absence of chemical substance: 1.0
Yeast gene YKL035W
  The level of expressed mRNA in the presence of chemical substance/The level of expressed mRNA in the absence of chemical substance: 2.0
Yeast gene YKL060C, cells incubated two hours with the chemical substance
  The level of expressed mRNA in the presence of chemical substance/The level of expressed mRNA in the absence of chemical substance: 1.2
Yeast gene YKL085W, cells incubated two hours with the chemical substance
  The level of expressed mRNA in the presence of chemical substance/The level of expressed mRNA in the absence of chemical substance: 1.5
Yeast gene YKL150W
  The level of expressed mRNA in the presence of chemical substance/The level of expressed mRNA in the absence of chemical substance: 1.8
Yeast gene YKR058W, cells incubated two hours with the chemical substance, 25° C., YPD medium
  The level of expressed mRNA in the presence of chemical substance/The level of expressed mRNA in the absence of chemical substance: 0.7
Yeast gene YLL041C, cells incubated two hours with the chemical substance
  The level of expressed mRNA in the presence of chemical substance/The level of expressed mRNA in the absence of chemical substance: 1.0
Yeast gene YLR164W, cells incubated two hours with the chemical substance
  The level of expressed mRNA in the presence of chemical substance/The level of expressed mRNA in the absence of chemical substance: 1.0
Yeast gene YLR273C
  The level of expressed mRNA in the presence of chemical substance/The level of expressed mRNA in the absence of chemical substance: 1.7
Yeast gene YLR354C, cells incubated two hours with the chemical substance
  The level of expressed mRNA in the presence of chemical substance/The level of expressed mRNA in the absence of chemical substance: 1.0
Yeast gene YML054C
  The level of expressed mRNA in the presence of chemical substance/The level of expressed mRNA in the absence of chemical substance: 2.8
Yeast gene YML087C
  The level of expressed mRNA in the presence of chemical substance/The level of expressed mRNA in the absence of chemical substance: 1.5
Yeast gene YML100W
  The level of expressed mRNA in the presence of chemical substance/The level of expressed mRNA in the absence of chemical substance: 3.8
Yeast gene YML120C, cells incubated two hours with the chemical substance
  The level of expressed mRNA in the presence of chemical substance/The level of expressed mRNA in the absence of chemical substance: 1.2
Yeast gene YML125C
  The level of expressed mRNA in the presence of chemical substance/The level of expressed mRNA in the absence of chemical substance: 2.2
Yeast gene YML129C, cells incubated two hours with the chemical substance
  The level of expressed mRNA in the presence of chemical substance/The level of expressed mRNA in the absence of chemical substance: 1.0
Yeast gene YMR073C, cells incubated two hours with the chemical substance
  The level of expressed mRNA in the presence of chemical substance/The level of expressed mRNA in the absence of chemical substance: 1.2
Yeast gene YMR089C
  The level of expressed mRNA in the presence of chemical substance/The level of expressed mRNA in the absence of chemical substance: 2.3
Yeast gene YMR105C
  The level of expressed mRNA in the presence of chemical substance/The level of expressed mRNA in the absence of chemical substance: 3.3
Yeast gene YMR205C, cells incubated two hours with the chemical substance
  The level of expressed mRNA in the presence of chemical substance/The level of expressed mRNA in the absence of chemical substance: 1.3
Yeast gene YMR261C, cells incubated two hours with the chemical substance
  The level of expressed mRNA in the presence of chemical substance/The level of expressed mRNA in the absence of chemical substance: 1.6
Yeast gene YMR267W, cells incubated two hours with the chemical substance, 25° C., YPD medium
  The level of expressed mRNA in the presence of chemical substance/The level of expressed mRNA in the absence of chemical substance: 0.7
Yeast gene YNL037C
  The level of expressed mRNA in the presence of chemical substance/The level of expressed mRNA in the absence of chemical substance: 1.9
Yeast gene YNL071W
  The level of expressed mRNA in the presence of chemical substance/The level of expressed mRNA in the absence of chemical substance: 2.5
Yeast gene YNL237W
  The level of expressed mRNA in the presence of chemical substance/The level of expressed mRNA in the absence of chemical substance: 3.2
Yeast gene YNL331C
  The level of expressed mRNA in the presence of chemical substance/The level of expressed mRNA in the absence of chemical substance: 3.1
Yeast gene YOL126C
  The level of expressed mRNA in the presence of chemical substance/The level of expressed mRNA in the absence of chemical substance: 2.6
Yeast gene YOL157C
  The level of expressed mRNA in the presence of chemical substance/The level of expressed mRNA in the absence of chemical substance: 1.4
Yeast gene YOL165C
  The level of expressed mRNA in the presence of chemical substance/The level of expressed mRNA in the absence of chemical substance: 3.7
Yeast gene YOR136W
  The level of expressed mRNA in the presence of chemical substance/The level of expressed mRNA in the absence of chemical substance: 1.5
Yeast gene YOR178C, cells incubated two hours with the chemical substance
  The level of expressed mRNA in the presence of chemical substance/The level of expressed mRNA in the absence of chemical substance: 1.0
Yeast gene YOR221C
  The level of expressed mRNA in the presence of chemical substance/The level of expressed mRNA in the absence of chemical substance: 1.0
Yeast gene YOR347C
  The level of expressed mRNA in the presence of chemical substance/The level of expressed mRNA in the absence of chemical substance: 1.8
Yeast gene YOR388C, cells incubated two hours with the chemical substance
  The level of expressed mRNA in the presence of chemical substance/The level of expressed mRNA in the absence of chemical substance: 1.1
Yeast gene YPL031C, cells incubated two hours with the chemical substance
  The level of expressed mRNA in the presence of chemical substance/The level of expressed mRNA in the absence of chemical substance: 1.6
Yeast gene YPL061W, cells incubated two hours with the chemical substance
  The level of expressed mRNA in the presence of chemical substance/The level of expressed mRNA in the absence of chemical substance: 1.1
Yeast gene YPL171C
  The level of expressed mRNA in the presence of chemical substance/The level of expressed mRNA in the absence of chemical substance: 2.4
Yeast gene YPL240C
  The level of expressed mRNA in the presence of chemical substance/The level of expressed mRNA in the absence of chemical substance: 2.9
Yeast gene YPL271W
  The level of expressed mRNA in the presence of chemical substance/The level of expressed mRNA in the absence of chemical substance: 1.2
Yeast gene YPL275W, cells incubated two hours with the chemical substance
  The level of expressed mRNA in the presence of chemical substance/The level of expressed mRNA in the absence of chemical substance: 1.0
Yeast gene YPR006C
  The level of expressed mRNA in the presence of chemical substance/The level of expressed mRNA in the absence of chemical substance: 1.8
Yeast gene YPR026W
  The level of expressed mRNA in the presence of chemical substance/The level of expressed mRNA in the absence of chemical substance: 2.3
Yeast gene YPR048W, cells incubated two hours with the chemical substance
  The level of expressed mRNA in the presence of chemical substance/The level of expressed mRNA in the absence of chemical substance: 0.6
